Results: patent US20110206739A1, “COMPOSITIONS AND METHODS FOR THE PREPARATION OF NANOEMULSIONS” (UNIVERSITY OF MASSACHUSETTS, priority 2008, published 2011)
Blank lines part the entries; values can stand above or below the compound they belong to.

How the values were obtained:
[1] = system: Malme-3M melanoma cancer cells; assay: Curcumin cell inhibition, MTS assay after 72 hrs; format: cell-based, human
Description: The curcumin nanoemulsion was prepared by combining gelatin and EMG-20 or gelatin and Solutol® HS15 in a 1:1 weight ratio. The cell inhibition activity of the blank nanoemulsion, a 30 micromolar DMSO-curcumin mixture, a 0.030 micromolar DMSO-curcumin mixture, and a 0.03 micromolar curcumin nanoemulsion were contacted with melanoma cancer cell lines.

[2] = Electrokinetic potential (zeta potential); format: physicochemical; conditions: at 10 mv
Description: The electrokinetic potential (“Zeta-potential”) of the curcumin nanoemulsion was measured (FIG. 10A) and compared to the corresponding electrokinetic potential for curcumin in water (FIG. 10B). The zeta potential of a colloidal system corresponds to the electric potential in the interfacial double layer (DL) at the location of the slipping plane versus a point in the bulk fluid away from the interface (i.e., the potential difference between the dispersion medium and the stationary layer of fluid attached to the dispersed particle). For small particles (e.g., nanoemulsions) a higher zeta potential corresponds to greater stability of a colloidal dispersion, representing a greater degree of repulsion between adjacent particles in the dispersion to resist particle/droplet aggregation. A zeta potential of −23.5 (wall zeta potential of −50.3) was measured for the curcumin nanoemulsion (FIG. 10A), compared to a zeta wall potential at 10 mv of −2.53 for curcumin in water (FIG. 10B).

[3] = system: melanoma cancer cells (Malme-3M); assay: 5-FU Cell Proliferation Assay (MTS Assay); format: cell-based, human; conditions: 24 μM, compared with 5-FU nanoemulsion
Description: The in vitro activity of the 5-FU nanoemulsion was measured against three cancer cell lines (CCL-221, Malme-3M, and CCL-2) using a Cell Proliferation Assay (MTS Assay). The MTS Assay uses a tetrazolium compound (MTS) and an electron coupling reagent (PES) was purchased from Fisher Scientific (Pittsburgh, Pa.). The tetrazolium compound (MTS) can be bioreduced into a colored formazan product by dehydrogenase enzymes in metabolic cells. Formazan is a water-soluble compound and can be dissolved in the culture medium, the quantity of formazan product as measured by the absorbance at 490 nm was directly proportional to the number of living cells in culture.
After incubation for 5 hours, the cells were attached to the bottom of the well and the diluted nanoemulsions were then added and incubated for 48 hours. Subsequently, the media were removed by aspiration and 100 microliter of fresh phenol free cell culture media was pipetted followed by adding 20 microliter of MTS reagent into each well. The plate was incubated for 2 hours at 37 degrees C. in a humidified, 5% CO2 atmosphere and the 96-well plate reader was used to measure the absorbance at 490 nm. The 5-FU nanoemulsions prepared in this study had 20 nm average particle size.

[4] = Particle size by dynamic laser light scattering (Malvern Zetasizer-S); format: physicochemical
Description: Unless otherwise indicated, “average particle size” refers to the z-average particle or droplet diameter measured by dynamic laser light scattering, also called Photon correlation spectroscopy (e.g., using the Malvern Zetasizer-S instrument, Malvern Instruments Inc., Southborough Mass.). Unless otherwise indicated, the z-average particle sizes were determined using the Malvern Zetasizer-S instrument with a 4 mW He—Ne laser operating at a wavelength of 633 nm and an avalanche photodiode detector (APD). The z-average diameter is the mean hydrodynamic diameter and the polydispersity index is an estimate of the width of the distribution. Both z-average diameter and polydispersity index (“PDI”) are calculated according to the International Standard on dynamic light scattering, ISO13321.
(§1) Particle sizes of all the formulations indicated in the Examples below were measured by dynamic laser light scattering, also called Photon correlation spectroscopy, using the Malvern Zetasizer-S instrument (Malvern Instruments Inc., Southborough Mass.). […] The particle diffusion (translational diffusion) due to Brownian motion was measured in the instrument and related to the size of the parameter. The mean hydrodynamic diameter (DH) was calculated from the Strokes-Einstein equation. The range of particle sizes which can be measured by the Zetasizer is from 0.6 to 6000 nm.

[5] = system: PL-45 cells; assay: Paclitaxel growth inhibition, 48 hours; format: cell-based, human; conditions: PL-45, after 48 hours of treatment
Description: FIG. 16C is a graph showing dose-dependant anti cancer activity of paclitaxel in DMSO and paclitaxel in a nanoemulsion made up of rice bran oil and Solutol® HS15 against PL-45 cells after 48 hours of treatment. The graphs indicate a 44% and 40% growth inhibition when treated with paclitaxel in DMSO and paclitaxel in nanoemulsion respectively. […] The error bars represent the standard error of mean for experiments done in duplicates.

[6] = system: CCL-221 cells; assay: Paclitaxel growth inhibition, 48 hours; format: cell-based, human; conditions: CCl-221, after 48 hours of treatment
Description: (§2) The graphs indicate a 60% and 52% growth inhibition when treated with paclitaxel in DMSO and paclitaxel in nanoemulsion respectively. […] The error bars represent the standard error of mean for experiments done in duplicates.

[7] = system: P10.05 cells; assay: Paclitaxel growth inhibition, 48 hours; format: cell-based, human; conditions: P10.05, after 48 hours of treatment
Description: as §2

[8] = Stability of Coumarin preparations over several days stored at room temperature (size, PDI); format: physicochemical; conditions: for Size: in nm (unit assumed)
Description: The fluorescence intensity of a Coumarin 6 nanoemulsion can be increased by adding a polysaccharide polymer such as dextran to the SANE formulation. As described in Example 2, the fluorescent dye Coumarin 6 SANE composition can optionally comprise dextran to increase fluorescence intensity of the SANE dye composition. Example 2 describes preparation of Coumarin 6 SANE dye formulations with and without the addition of the polymer dextran. Example 2 also describes measured particle size, stability and fluorescence intensity determined in samples of (a) DMSO coumarin 6 preparation, (b) nanoemulsion of coumarin 6 preparation without dextran, and (c) nanoemulsion of coumarin 6 with dextran.
As shown by the data in Table 2 is that over a 3 day period, these SANE preparations of Coumarin 6 were stable (determined by particle size changes) at room temperature for at least 3 days compared to the DMSO coumarin 6 preparation.
as §1, with “Mass.). Each sample was diluted immediately before measurement with distilled water to avoid multiple light scattering effects.” for “Mass.).”

zeta wall potential [2]: −2.53
Compound: COc1cc(/C=C/C(=O)CC(=O)/C=C/c2ccc(O)c(OC)c2)ccc1O [curcumin in water, (1E,6E)-1,7-bis(4-hydroxy-3-methoxyphenyl)-1,6-heptadiene-3,5-dione]

average particle (droplet) size, Z-average [4]: ≥ 1,000 nm
Compound: CC(=O)O[C@H]1C(=O)[C@@]2(C)[C@H]([C@H](OC(=O)c3ccccc3)[C@]3(O)C[C@H](OC(=O)[C@H](O)[C@@H](NC(=O)c4ccccc4)c4ccccc4)C(C)=C1C3(C)C)[C@]1(OC(C)=O)CO[C@@H]1C[C@@H]2O [paclitaxel in DMSO, paclitaxel]
growth inhibition [5]: 44% | growth inhibition [6]: 60% | growth inhibition [7]: 60%

PDI ([8]; 0 hrs): 0.457 | Size ([8]; 0 hrs): 1373 | PDI ([8]; 72 hrs): 0.857 | Size ([8]; 72 hrs): 1373 | PDI ([8]; 96 hrs): 0.857 | Size ([8]; 96 hrs): 2142 | PDI ([8]; 120 hrs): 0.857 | Size ([8]; 120 hrs): 6000 | PDI ([8]; 144 hrs): 0.857 | Size ([8]; 144 hrs): 6000 | PDI ([8]; 240 hrs): 0.857 | Size ([8]; 240 hrs): 6000
Compound: Coumarin 6 [DMSO COUMARIN]

The remaining lines, values behind:

Compound: COc1cc(/C=C/C(=O)CC(=O)/C=C/c2ccc(O)c(OC)c2)ccc1O [curcumin in DMSO, (1E,6E)-1,7-bis(4-hydroxy-3-methoxyphenyl)-1,6-heptadiene-3,5-dione]
inhibition of melanoma cancer cell proliferation ([1]; 0.03 micromolar): efficacy against the melanoma cancer cells is lost | inhibition of melanoma cancer cell proliferation ([1]; 30 micromolar): inhibited melanoma cancer cell proliferation

Compound: O=c1[nH]cc(F)c(=O)[nH]1 [non-encapsulation 5-FU, 5-fluorouracil]
inhibition of cell proliferation [3]: not as effective
